Laboratory results from US20260337190A1, “CRYSTAL FORM OF PYRIDINOPYRIMIDINONE COMPOUND, ACID SALT THEREOF, CRYSTAL FORM OF ACID SALT THEREOF, AND USE” (Wuhan Humanwell Innovative Drug Research and Development …, priority 2022, published 2026).
Entries after “also recorded” stand apart in the source; their conditions may differ.

Tests used:
Mia Paca-2 tumor = experiment: In vivo efficacy on Mia Paca-2 pancreatic cancer (alone or with trametinib); parameters: species or system mice
Protocol: After one week of adaptive feeding of mice, Mia Paca-2 cells in a logarithmic phase were resuspended in serum-free DMEM, and then mixed with Matrigel in a ratio of 1:1. 1×10^7 Mia Paca-2 cells were inoculated subcutaneously at the right flank at 100 μL per mouse, and tumor growth was observed regularly. When the tumor grew to an average volume of 150 to 200 mm^3, the mice were randomly divided into a model group and an administration group (single drug, in combination with trametinib) based on the tumor size and body weight. The tumor size and body weight were measured and recorded before and during the administration. After the treatment, the tumor size in the model group was compared with that in the administration group to determine the efficacy.

[1] = Human liver microsome stability; format: in vitro ADME
Protocol: The human liver microsome stability test was performed by incubating the compound and human liver microsomes in vitro. First, the compound to be tested was prepared into a 10 mM stock solution in DMSO solvent, and then the compound was diluted to 0.5 mM with acetonitrile. Human liver microsomes (Corning) were diluted with PBS into a microsome/buffer solution, and the solution was used to dilute 0.5 mM compound into a working solution, in which the concentration of the compound was 1.5 μM, and the concentration of human liver microsomes was 0.75 mg/mL. A deep-well plate was taken, 30 μL of the working solution was added per well, and then 15 μL of pre-heated 6 mM NADPH solution was added thereto to initiate a reaction, and the reaction was incubated at 37 °C At 0, 5, 15, 30, and 45 min of the incubation, 135 μL of acetonitrile was added to the corresponding wells to terminate the reaction. After the reaction was terminated with acetonitrile at the last time point of 45 min, the deep-well plate was vortexed for 10 min (600 rpm/min), and then centrifuged for 15 min. After centrifugation, the supernatant was collected, and added with purified water in a ratio of 1:1 to perform LC-MS/MS detection. A ratio of a peak area of compound to a peak area of internal standard at each time point was obtained, and the peak area ratios of the compound at 5, 15, 30, and 45 min were compared with the peak area ratio at 0 min to calculate the remaining percentage of the compound at each time point. T1/2 was calculated by using GraphPad 5 software.

KRAS G12C-SOS1 = target: T1, KRAS G12C-SOS1 (Homo sapiens, UniProt Q07889); experiment: Inhibitory effect on KRAS G12C-SOS1; format: biochemical; parameters: SOS1 catalytic domain likely; details: summary statement
T1 sequence (Q07889 1-1333): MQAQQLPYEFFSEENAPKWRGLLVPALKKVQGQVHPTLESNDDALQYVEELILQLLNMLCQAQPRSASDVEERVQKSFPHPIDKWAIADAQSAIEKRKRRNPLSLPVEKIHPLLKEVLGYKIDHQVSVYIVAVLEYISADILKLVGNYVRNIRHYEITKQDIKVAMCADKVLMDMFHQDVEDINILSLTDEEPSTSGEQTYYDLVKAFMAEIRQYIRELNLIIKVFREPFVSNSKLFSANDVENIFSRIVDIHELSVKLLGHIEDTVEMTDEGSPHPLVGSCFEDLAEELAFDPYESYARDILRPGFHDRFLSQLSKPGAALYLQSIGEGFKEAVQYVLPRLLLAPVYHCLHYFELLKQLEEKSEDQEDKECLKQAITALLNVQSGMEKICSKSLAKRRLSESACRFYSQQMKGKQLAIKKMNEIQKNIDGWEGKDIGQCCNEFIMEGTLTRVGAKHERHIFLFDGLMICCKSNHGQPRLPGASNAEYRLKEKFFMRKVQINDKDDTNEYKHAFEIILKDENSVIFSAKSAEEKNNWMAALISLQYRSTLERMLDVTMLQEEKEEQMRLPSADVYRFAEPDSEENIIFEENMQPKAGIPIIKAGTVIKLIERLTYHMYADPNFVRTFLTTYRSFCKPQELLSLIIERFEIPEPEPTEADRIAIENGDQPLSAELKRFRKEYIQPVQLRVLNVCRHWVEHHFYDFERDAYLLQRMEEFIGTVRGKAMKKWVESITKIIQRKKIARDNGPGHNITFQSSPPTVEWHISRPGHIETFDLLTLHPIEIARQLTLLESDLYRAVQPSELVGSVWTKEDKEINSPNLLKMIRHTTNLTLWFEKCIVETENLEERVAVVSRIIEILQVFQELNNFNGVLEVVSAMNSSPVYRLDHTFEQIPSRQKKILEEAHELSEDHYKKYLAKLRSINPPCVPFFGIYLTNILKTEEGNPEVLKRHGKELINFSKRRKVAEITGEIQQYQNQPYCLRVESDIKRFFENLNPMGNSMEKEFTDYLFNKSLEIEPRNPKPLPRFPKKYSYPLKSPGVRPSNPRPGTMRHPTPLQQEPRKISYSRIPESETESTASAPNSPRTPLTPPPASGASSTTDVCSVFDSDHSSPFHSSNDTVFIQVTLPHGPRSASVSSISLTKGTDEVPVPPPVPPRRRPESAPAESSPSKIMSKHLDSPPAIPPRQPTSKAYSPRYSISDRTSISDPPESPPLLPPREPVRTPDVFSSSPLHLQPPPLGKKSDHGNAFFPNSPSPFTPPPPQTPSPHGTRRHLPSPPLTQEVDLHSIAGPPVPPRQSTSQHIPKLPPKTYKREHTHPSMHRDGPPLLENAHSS

NCI-H1975 tumor = experiment: In vivo efficacy on NCI-H1975 non-small cell lung cancer (in combination with osimertinib); parameters: species or system mice
Protocol: NCI-H1975 tumor cells were cultured in an incubator at 37 °C and 5% CO2 using medium containing inactivated RPMI 1640+10% FBS. After reaching a confluency rate of 80 to 90%, the cells were passaged by subculturing. After one week of adaptive feeding in mice, NCI-H1975 cells in logarithmic phase were inoculated subcutaneously into the right flank of mice at a concentration of 5×10^6/100 μL. Tumor growth was regularly monitored until the tumors reached an average volume of 100 to 150 mm^3. […] Tumor size and animal weight were measured and recorded before and during the administration process. The differences in tumor size between the model group and administration group were compared to determine the efficacy.

[2] = Mouse pharmacokinetic test, oral gavage; format: in vivo, male ICR mice; details: summary statement; listed as compound of the present disclosure
Protocol: Male ICR mice (20 to 25 g) were used, and fasted overnight. Three mice were taken and orally administered by gavage (10 mg/kg). Blood was collected before the administration, and at 15 min, 30 min, 1 h, 2 h, 4 h, 8 h, and 24 h after the administration. 6,800 g of the blood samples were centrifuged at 2 to 8 °C for 6 min, and plasma was collected and stored at −80 °C The plasma at each time point was taken and added with an acetonitrile solution containing internal standard in 3 to 5 times the amount, vortexed and mixed for 1 min, and centrifuged at 13,000 rpm/min at 4 °C for 10 min. The supernatant was collected, added with water in 3 times the amount, and mixed. An appropriate amount of the mixture was taken for LC-MS/MS analysis. The main pharmacokinetic parameters were analyzed using WinNonlin 7.0 software with non-compartmental model.

CYP3A4 = target: T2, CYP3A4 (Homo sapiens, UniProt P08684); experiment: Inhibition of cytochrome P450 CYP3A4 (substrates midazolam and testosterone); format: in vitro ADME; details: role: inhibitor; summary statement
T2 construct: probe substrates midazolam and testosterone, ketoconazole control
T2 sequence (P08684 whole entry): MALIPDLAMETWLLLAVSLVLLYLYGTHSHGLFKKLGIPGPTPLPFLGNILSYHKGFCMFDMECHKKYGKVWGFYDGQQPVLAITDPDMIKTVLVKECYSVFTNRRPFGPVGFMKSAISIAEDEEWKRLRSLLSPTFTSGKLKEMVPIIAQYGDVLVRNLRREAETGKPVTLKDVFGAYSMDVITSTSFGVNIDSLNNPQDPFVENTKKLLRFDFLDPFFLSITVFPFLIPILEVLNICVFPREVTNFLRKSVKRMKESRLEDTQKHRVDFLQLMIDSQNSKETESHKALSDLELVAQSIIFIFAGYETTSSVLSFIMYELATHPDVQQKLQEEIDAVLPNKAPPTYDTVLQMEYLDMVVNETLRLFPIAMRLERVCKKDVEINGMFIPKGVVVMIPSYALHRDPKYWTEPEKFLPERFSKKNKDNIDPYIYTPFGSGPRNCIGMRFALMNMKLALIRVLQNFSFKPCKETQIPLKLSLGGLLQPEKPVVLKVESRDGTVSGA
Protocol: The inhibitory potential of compounds on cytochrome P450 (CYP450) subtype CYP3A4 (two substrates of midazolam and testosterone) was detected. First, the compound to be tested was prepared into a 10 mM stock solution in DMSO solvent, and the CYP3A4 inhibitor ketoconazole was prepared as 10 mM, 2.5 mM, and 2.5 mM stock solutions in DMSO solvent. The test compound and ketoconazole were diluted to 400-fold final concentration (compound: 10 μM, ketoconazole: 2.5 μM) with acetonitrile.
NADPH cofactor (10 mL of potassium phosphate buffer added with 66.7 mg NADPH) at 4-fold final concentration and substrates were prepared with potassium phosphate buffer (0.1 M, pH=7.4), with CYP3A4 substrate midazolam at a final concentration of 320 μM and CYP3A4 substrate testosterone at a final concentration of 20 μM.
A human liver microsome solution at a concentration of 0.2 mg/mL was prepared with potassium phosphate buffer on ice. A solution of the compound to be tested and a control inhibitor (control compound) solution at 2-fold final concentration were prepared with the human liver microsome solution on ice. The test wells were added with 30 mL of the test compound solution and the control inhibitor solution respectively, and then added with 15 mL of the substrate for duplication. […]

For `Cc1nc(N[C@H](C)c2cccc(S(F)(F)(F)(F)F)c2)c2cn(C3(CF)CC3)c(=O)cc2n1` [compound of formula I, (R)-6-(1-(fluoromethyl)cyclopropyl)-2-methyl-4-((1-(3-(pentafluorosulfanyl)phenyl)ethyl)amino)pyrido[4,3-d]pyrimidin-7(6H)-one], the “inhibitory effect on Mia Paca-2 tumor growth” value (Mia Paca-2 tumor; alone or in combination with trametinib) was “significant inhibitory effect”, the “combined use with trametinib vs single use, Mia Paca-2 tumor growth” value (Mia Paca-2 tumor; in combination with trametinib) was “more effective than the single use” and the remaining at 0.5 h ([1]; human liver microsomes, 30 min, 37 °C, NADPH, read-out: Remaining percentage of compound after incubation for 30 min) was 98.7%. The hepatic metabolic stability ([1]; summary statement) was “good hepatic metabolic stability”, the “metabolism in the human body” value ([1]; summary statement) was “slow metabolism in the human body” and the “inhibitory effect on KRAS G12C-SOS1” value (KRAS G12C-SOS1) was “significant inhibitory effect”. The “average tumor volume at the end of the treatment vs single-drug group of osimertinib” value (NCI-H1975 tumor; compound I-1 7.5 mg/kg BID or 25 mg/kg BID + osimertinib 1 mg/kg QD) was “significantly reduced, and the difference is statistically significant”, the “synergistic effect of combined administration” value (NCI-H1975 tumor; compound I-1 25 mg/kg BID + osimertinib 1 mg/kg QD) was “synergistic effect” and the “anti-tumor efficacy of combination with osimertinib vs single-drug administration” value (NCI-H1975 tumor; in combination with osimertinib) was “significantly better than that of single-drug administration”. For the same compound, the “pharmacokinetic properties / exposure” value [2] was “high exposure; also recorded: excellent pharmacokinetic properties” and the “inhibitory effect on CYP3A4 enzymes” value (CYP3A4) was “no inhibitory effect”.
